Measurements published in US20220213144A1, “HALOGENATED ANTIMICROBIAL PEPTOIDS” (priority 2019, published 2022).
Values after ≈ are worked out from the molar mass of the structure shown. Read-outs that look alike come from different tables or passages of the source. Each block holds one molecule with its values, some of them ahead of it. Square brackets hold non-standard residues; d marks the D form. Peptide text beside a SMILES is read from it. Gly(Nα-4-Cl-benzyl) = O=C(O)CNCc1ccc(Cl)cc1; N(4-Br-benzyl)Gly = O=C(O)CNCc1ccc(Br)cc1; N(4-F-Bzl)Gly = O=C(O)CNCc1ccc(F)cc1; NBzl(4-I)Gly = O=C(O)CNCc1ccc(I)cc1; Nphe = O=C(O)CNCc1ccccc1; Nlys = NCCCCNCC(=O)O

What was measured:
[1] = system: methicillin-restant S. epidermidis ATCC 51625; type: cell-based, Staphylococcus epidermidis; details: for MIC against MRSE: text b77, 6-mers, strain not named, values fit ATCC 51625
Procedure: (§1) Bacterial growth inhibition was determined by using broth microdilution according to the Clinical Laboratory Standards Institute. The antibacterial activity of peptoids was tested against S. aureus ATCC 25923, ATCC29213, and methicillin resistant S. aureus USA 300, methicillin resistant S. epidermidis ATCC 51625, a biofilm producing methicillin resistant S. epidermidis […], P. aeruginosa Pa01 (H103), and E. coli ATCC 25922. Bacteria, grown on agar plates for 18 hours at 37° C., were diluted to ˜1×10^8 CFU/mL in Mueller-Hinton Broth II (MHB II). Twofold serial dilutions of peptoids in MHB II were inoculated with the bacteria to achieve a final concentration of 5×10^5 CFU/mL in polypropylene 96 U-well microtiter plates (Corning™ 3897; ThermoFisher Scientific, Roskilde), followed by incubation at 37° C. in ambient air for 18 hours. The MIC values were determined as the lowest concentration showing no visible bacterial growth. Experiments were performed twice (in technical triplicates) on different days.

seven bacterial strains = assay: MIC by broth microdilution, whole panel of bacterial strains; type: cell-based; details: in words
Procedure: All 36 peptoids were tested against seven bacterial strains. These included five Gram-positive strains (Staphylococcus aureus ATCC 25923 and ATCC 29213, methicillin-resistant Staphylococcus aureus USA 300, methicillin-restant Staphylococcus epidermidis ET-024 and ATCC 51625) and two Gram-negative strains (Escherichia coli ATCC 25922 and Pseudomonas aeruginosa PA01) (see TABLE 1).
as §1

S. aureus ATCC 25923 = type: cell-based, Staphylococcus aureus; details: for increase in activity against S. aureus: compared to the unsubstituted control peptoid of same length; for MIC against S. aureus: strain not named
Procedure: as §1

[2] = Small angle X-ray scattering, critical aggregation concentration from fit; type: physicochemical; details: for critical aggregation concentration (CAC): SAXS fit analysis, bundle model
Procedure: SAXS experiments of the 10-mer peptoids were performed on the automated BM29 bioSAXS beamline at the European Synchrotron Radiation Facility (ESRF) in Grenoble, France. The data was obtained using an energy of 12.5 keV and a detector distance of 2.87 m, covering a q range (q=4π sin(θ/2)/λ), where θ is the scattering angle and λ is the X-ray wavelength) of about 0.0047 Å-1 to 0.5 Å-1. The data set was calibrated to an absolute intensity scale using water as a primary standard. Samples (40 μL) were run through a capillary using the flow mode of the automated sample changer. SAXS data was collected in ten successive frames of 0.5 s each to monitor radiation damage, and the data reduction was done using the standard tool at BM29.
The SAXS experiments on the fully iodinated 6-, 8-, and 12-mers to determine the CAC of the compounds were performed using a Bruker NANOSTAR equipped with a microfocus X-ray source (IμS Cu, Incoatec, Germany) and a VANTEC-2000 detector. Raw scattering data was calibrated to absolute intensity scale using water as a primary standard and radially averaged in order to obtain the 1D scattered intensity profile as a function of the scattering vector, with a wavelength of 1.54 Å.
where fagg is the fraction of peptoid chains aggregated in bundles, allowing for calculation of a CAC from ϕCAC=ϕ−(fagg*ϕ).

[3] = system: methicillin-restant S. epidermidis ET-024; type: cell-based, Staphylococcus epidermidis; details: for MIC against MRSE: strain not named; for increase in activity against MRSE: 8-mer and 10-mer, compared to unsubstituted controls 10 and 19
Procedure: as §1

[4] = Table 3, fully iodinated peptoids, bundle model fit
[5] = 8-mers and 10-mers, values fit ET-024
[6] = Table 2, 10-mers, SAXS at ESRF, model fit

- CAC [2, 6]: >5 mg/mL
Structure (SMILES): NCCCCNCC(=O)N(CC(=O)N(CCCCN)CC(=O)N(CC(=O)N(CCCCN)CC(=O)N(CC(=O)N(CCCCN)CC(=O)N(CC(=O)N(CCCCN)CC(=O)N(CC(N)=O)Cc1ccc(F)cc1)Cc1ccc(F)cc1)Cc1ccc(F)cc1)Cc1ccc(F)cc1)Cc1ccc(F)cc1 [Compound 20] (H-[Nlys][N(4-F-Bzl)Gly][Nlys][N(4-F-Bzl)Gly][Nlys][N(4-F-Bzl)Gly][Nlys][N(4-F-Bzl)Gly][Nlys][N(4-F-Bzl)Gly]-NH2; N-terminus assumed)

- CAC [2, 6]: >5 mg/mL
Structure (SMILES): NCCCCNCC(=O)N(CC(=O)N(CCCCN)CC(=O)N(CC(=O)N(CCCCN)CC(=O)N(CC(=O)N(CCCCN)CC(=O)N(CC(=O)N(CCCCN)CC(=O)N(CC(N)=O)Cc1ccc(Cl)cc1)Cc1ccc(Cl)cc1)Cc1ccc(Cl)cc1)Cc1ccc(Cl)cc1)Cc1ccc(Cl)cc1 [Compound 21] (H-[Nlys][Gly(Nα-4-Cl-benzyl)][Nlys][Gly(Nα-4-Cl-benzyl)][Nlys][Gly(Nα-4-Cl-benzyl)][Nlys][Gly(Nα-4-Cl-benzyl)][Nlys][Gly(Nα-4-Cl-benzyl)]-NH2; N-terminus assumed)

- critical aggregation concentration (CAC) [2]: 0.5 mg/mL
- CAC [2, 6]: 0.4 mg/mL
- CAC [2, 4]: 0.5 mg/mL
Structure (SMILES): NCCCCNCC(=O)N(CC(=O)N(CCCCN)CC(=O)N(CC(=O)N(CCCCN)CC(=O)N(CC(=O)N(CCCCN)CC(=O)N(CC(=O)N(CCCCN)CC(=O)N(CC(N)=O)Cc1ccc(I)cc1)Cc1ccc(I)cc1)Cc1ccc(I)cc1)Cc1ccc(I)cc1)Cc1ccc(I)cc1 [Compound 23] (H-[Nlys][NBzl(4-I)Gly][Nlys][NBzl(4-I)Gly][Nlys][NBzl(4-I)Gly][Nlys][NBzl(4-I)Gly][Nlys][NBzl(4-I)Gly]-NH2; N-terminus assumed)

- CAC [2, 6]: >5 mg/mL
Structure (SMILES): NCCCCNCC(=O)N(CC(=O)N(CCCCN)CC(=O)N(CC(=O)N(CCCCN)CC(=O)N(CC(=O)N(CCCCN)CC(=O)N(CC(=O)N(CCCCN)CC(=O)N(CC(N)=O)Cc1ccc(F)cc1)Cc1ccccc1)Cc1ccc(F)cc1)Cc1ccccc1)Cc1ccc(F)cc1 [Compound 24] (H-[Nlys][N(4-F-Bzl)Gly][Nlys][Nphe][Nlys][N(4-F-Bzl)Gly][Nlys][Nphe][Nlys][N(4-F-Bzl)Gly]-NH2)

- CAC [2, 6]: >5 mg/mL
Structure (SMILES): NCCCCNCC(=O)N(CC(=O)N(CCCCN)CC(=O)N(CC(=O)N(CCCCN)CC(=O)N(CC(=O)N(CCCCN)CC(=O)N(CC(=O)N(CCCCN)CC(=O)N(CC(N)=O)Cc1ccc(Cl)cc1)Cc1ccccc1)Cc1ccc(Cl)cc1)Cc1ccccc1)Cc1ccc(Cl)cc1 [Compound 25] (H-[Nlys][Gly(Nα-4-Cl-benzyl)][Nlys][Nphe][Nlys][Gly(Nα-4-Cl-benzyl)][Nlys][Nphe][Nlys][Gly(Nα-4-Cl-benzyl)]-NH2)

- CAC [2, 6]: >5 mg/mL
Structure (SMILES): NCCCCNCC(=O)N(CC(=O)N(CCCCN)CC(=O)N(CC(=O)N(CCCCN)CC(=O)N(CC(=O)N(CCCCN)CC(=O)N(CC(=O)N(CCCCN)CC(=O)N(CC(N)=O)Cc1ccc(I)cc1)Cc1ccccc1)Cc1ccc(I)cc1)Cc1ccccc1)Cc1ccc(I)cc1 [Compound 27] (H-[Nlys][NBzl(4-I)Gly][Nlys][Nphe][Nlys][NBzl(4-I)Gly][Nlys][Nphe][Nlys][NBzl(4-I)Gly]-NH2)

- critical aggregation concentration (CAC) [2]: 0.4 mg/mL
- CAC [2, 4]: 0.4 mg/mL
Structure (SMILES): NCCCCNCC(=O)N(CC(=O)N(CCCCN)CC(=O)N(CC(=O)N(CCCCN)CC(=O)N(CC(=O)N(CCCCN)CC(=O)N(CC(=O)N(CCCCN)CC(=O)N(CC(=O)N(CCCCN)CC(=O)N(CC(N)=O)Cc1ccc(I)cc1)Cc1ccc(I)cc1)Cc1ccc(I)cc1)Cc1ccc(I)cc1)Cc1ccc(I)cc1)Cc1ccc(I)cc1 [Compound 32] (H-[Nlys][NBzl(4-I)Gly][Nlys][NBzl(4-I)Gly][Nlys][NBzl(4-I)Gly][Nlys][NBzl(4-I)Gly][Nlys][NBzl(4-I)Gly][Nlys][NBzl(4-I)Gly]-NH2; N-terminus assumed)

Further lines, the molecule ahead of its results:

Structure (SMILES): NCCCCNCC(=O)N(CC(=O)N(CCCCN)CC(=O)N(CC(=O)N(CCCCN)CC(=O)N(CC(N)=O)Cc1ccccc1)Cc1ccccc1)Cc1ccccc1 [Compound 1] (H-[Nlys][Nphe][Nlys][Nphe][Nlys][Nphe]-NH2; N-terminus assumed)
- MIC against MRSE [1]: 512 µg/mL (≈ 607 µM)
- potency against the selected bacterial strains (seven bacterial strains): inactive

Structure (SMILES): NCCCCNCC(=O)N(CC(=O)N(CCCCN)CC(=O)N(CC(=O)N(CCCCN)CC(=O)N(CC(N)=O)Cc1ccc(I)cc1)Cc1ccc(I)cc1)Cc1ccc(I)cc1 [Compound 5] (H-[Nlys][NBzl(4-I)Gly][Nlys][NBzl(4-I)Gly][Nlys][NBzl(4-I)Gly]-NH2; N-terminus assumed)
- increase in activity against S. aureus (S. aureus ATCC 25923): more than 64 fold
- MIC against S. aureus (S. aureus ATCC 25923): 8 µg/mL (≈ 6.55 µM)
- increase in activity against MRSE ([1]; 6-mer, compared to unsubstituted control 1): 256 fold
- MIC against MRSE [1]: 2 µg/mL (≈ 1.64 µM)
- critical aggregation concentration (CAC) [2]: 2.8 mg/mL
- CAC [2, 4]: 2.8 mg/mL

Structure (SMILES): NCCCCNCC(=O)N(CC(=O)N(CCCCN)CC(=O)N(CC(=O)N(CCCCN)CC(=O)N(CC(=O)N(CCCCN)CC(=O)N(CC(N)=O)Cc1ccccc1)Cc1ccccc1)Cc1ccccc1)Cc1ccccc1 [Compound 10] (H-[Nlys][Nphe][Nlys][Nphe][Nlys][Nphe][Nlys][Nphe]-NH2; N-terminus assumed)
- MIC against MRSE [3, 5]: 256 µg/mL (≈ 229 µM)
- potency against the selected bacterial strains (seven bacterial strains): inactive

Structure (SMILES): NCCCCNCC(=O)N(CC(=O)N(CCCCN)CC(=O)N(CC(=O)N(CCCCN)CC(=O)N(CC(=O)N(CCCCN)CC(=O)N(CC(N)=O)Cc1ccc(I)cc1)Cc1ccc(I)cc1)Cc1ccc(I)cc1)Cc1ccc(I)cc1 [Compound 14] (H-[Nlys][NBzl(4-I)Gly][Nlys][NBzl(4-I)Gly][Nlys][NBzl(4-I)Gly][Nlys][NBzl(4-I)Gly]-NH2; N-terminus assumed)
- increase in activity against MRSE [3]: 128 fold
- MIC against MRSE [3]: 2 µg/mL (≈ 1.23 µM)
- critical aggregation concentration (CAC) [2]: 1.4 mg/mL
- CAC [2, 4]: 1.4 mg/mL

Structure (SMILES): NCCCCNCC(=O)N(CC(=O)N(CCCCN)CC(=O)N(CC(=O)N(CCCCN)CC(=O)N(CC(=O)N(CCCCN)CC(=O)N(CC(=O)N(CCCCN)CC(=O)N(CC(N)=O)Cc1ccccc1)Cc1ccccc1)Cc1ccccc1)Cc1ccccc1)Cc1ccccc1 [Compound 19] (H-[Nlys][Nphe][Nlys][Nphe][Nlys][Nphe][Nlys][Nphe][Nlys][Nphe]-NH2; N-terminus assumed)
- MIC against MRSE [3, 5]: 128 µg/mL (≈ 91.8 µM)
- CAC [2, 6]: >5 mg/mL
- potency against the selected bacterial strains (seven bacterial strains): inactive

Structure (SMILES): NCCCCNCC(=O)N(CC(=O)N(CCCCN)CC(=O)N(CC(=O)N(CCCCN)CC(=O)N(CC(=O)N(CCCCN)CC(=O)N(CC(=O)N(CCCCN)CC(=O)N(CC(N)=O)Cc1ccc(Br)cc1)Cc1ccc(Br)cc1)Cc1ccc(Br)cc1)Cc1ccc(Br)cc1)Cc1ccc(Br)cc1 [Compound 22] (H-[Nlys][N(4-Br-benzyl)Gly][Nlys][N(4-Br-benzyl)Gly][Nlys][N(4-Br-benzyl)Gly][Nlys][N(4-Br-benzyl)Gly][Nlys][N(4-Br-benzyl)Gly]-NH2; N-terminus assumed)
- increase in activity against S. aureus (S. aureus ATCC 25923): > 256 fold
- MIC against S. aureus (S. aureus ATCC 25923): 2 µg/mL (≈ 1.12 µM)
- increase in activity against MRSE [3]: 128 fold
- MIC against MRSE [3, 5]: 1 µg/mL (≈ 0.559 µM)
- critical aggregation concentration (CAC) [2]: 2.3 mg/mL
- CAC [2, 6]: 2.3 mg/mL

Structure (SMILES): NCCCCNCC(=O)N(CC(=O)N(CCCCN)CC(=O)N(CC(=O)N(CCCCN)CC(=O)N(CC(=O)N(CCCCN)CC(=O)N(CC(=O)N(CCCCN)CC(=O)N(CC(=O)N(CCCCN)CC(=O)N(CC(N)=O)Cc1ccccc1)Cc1ccccc1)Cc1ccccc1)Cc1ccccc1)Cc1ccccc1)Cc1ccccc1 [Compound 28] (H-[Nlys][Nphe][Nlys][Nphe][Nlys][Nphe][Nlys][Nphe][Nlys][Nphe][Nlys][Nphe]-NH2; N-terminus assumed)
- potency against the selected bacterial strains (seven bacterial strains): inactive
